Measured values taken from ChEMBL document CHEMBL3991601, “The target landscape of clinical kinase drugs” (Science, 2017).
Activity calls are given as the source filed them. For most assays here, no stated cut-off is given here; in the data, actives have a measured Kd and inactives only a lower limit.

Tests used:
Actin-related protein 2 = Actin-related protein 2 (Homo sapiens, UniProt P61160)
[1] = target: Proto-oncogene tyrosine-protein kinase Src (Homo sapiens, UniProt P12931)
Ephrin type-A receptor 2 = Ephrin type-A receptor 2 (Homo sapiens, UniProt P29317)
Sequence of Ephrin type-A receptor 2 (P29317 whole entry, canonical isoform): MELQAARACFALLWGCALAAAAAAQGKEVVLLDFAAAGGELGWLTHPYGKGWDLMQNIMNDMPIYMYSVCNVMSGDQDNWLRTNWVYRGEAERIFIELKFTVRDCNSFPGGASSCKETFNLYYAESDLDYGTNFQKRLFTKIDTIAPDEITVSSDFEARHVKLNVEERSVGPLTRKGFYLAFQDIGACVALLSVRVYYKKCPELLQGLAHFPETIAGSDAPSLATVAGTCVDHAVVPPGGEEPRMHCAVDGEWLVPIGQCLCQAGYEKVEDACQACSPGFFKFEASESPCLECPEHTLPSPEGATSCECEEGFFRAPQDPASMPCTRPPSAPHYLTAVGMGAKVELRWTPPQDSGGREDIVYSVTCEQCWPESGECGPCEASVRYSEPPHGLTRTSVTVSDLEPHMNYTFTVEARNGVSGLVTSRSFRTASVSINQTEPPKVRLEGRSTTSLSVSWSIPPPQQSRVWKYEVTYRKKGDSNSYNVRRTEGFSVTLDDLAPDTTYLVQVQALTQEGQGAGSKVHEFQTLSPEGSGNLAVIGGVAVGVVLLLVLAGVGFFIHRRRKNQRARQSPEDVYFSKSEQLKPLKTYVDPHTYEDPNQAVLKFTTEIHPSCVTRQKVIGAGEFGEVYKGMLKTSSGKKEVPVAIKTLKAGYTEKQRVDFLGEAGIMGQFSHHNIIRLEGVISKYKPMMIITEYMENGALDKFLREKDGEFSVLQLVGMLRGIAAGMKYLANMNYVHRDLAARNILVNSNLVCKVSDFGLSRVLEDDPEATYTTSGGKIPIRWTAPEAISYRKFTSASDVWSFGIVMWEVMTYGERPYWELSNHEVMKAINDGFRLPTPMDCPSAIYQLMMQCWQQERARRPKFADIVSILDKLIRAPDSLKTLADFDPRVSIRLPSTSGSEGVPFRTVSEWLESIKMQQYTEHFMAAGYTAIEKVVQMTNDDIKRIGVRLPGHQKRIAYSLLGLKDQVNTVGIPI

[2] = target: Casein kinase I isoform epsilon (Homo sapiens, UniProt P49674)
Sequence of Casein kinase I isoform epsilon (P49674 whole entry, canonical isoform): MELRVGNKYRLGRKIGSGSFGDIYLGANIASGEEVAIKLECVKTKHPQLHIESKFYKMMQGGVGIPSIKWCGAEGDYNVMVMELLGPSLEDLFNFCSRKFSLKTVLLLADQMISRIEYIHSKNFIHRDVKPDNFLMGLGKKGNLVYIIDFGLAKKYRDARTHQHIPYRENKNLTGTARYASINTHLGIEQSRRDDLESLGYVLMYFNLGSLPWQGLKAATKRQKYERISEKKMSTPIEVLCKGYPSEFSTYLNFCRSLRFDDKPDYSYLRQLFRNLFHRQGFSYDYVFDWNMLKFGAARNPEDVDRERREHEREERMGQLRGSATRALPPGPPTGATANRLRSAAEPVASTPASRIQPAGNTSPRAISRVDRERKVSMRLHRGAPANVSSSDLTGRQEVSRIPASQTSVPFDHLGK

[3] = target: T1, ATP-dependent RNA helicase DDX1 (Homo sapiens, UniProt Q92499)
T1 sequence (Q92499 whole entry): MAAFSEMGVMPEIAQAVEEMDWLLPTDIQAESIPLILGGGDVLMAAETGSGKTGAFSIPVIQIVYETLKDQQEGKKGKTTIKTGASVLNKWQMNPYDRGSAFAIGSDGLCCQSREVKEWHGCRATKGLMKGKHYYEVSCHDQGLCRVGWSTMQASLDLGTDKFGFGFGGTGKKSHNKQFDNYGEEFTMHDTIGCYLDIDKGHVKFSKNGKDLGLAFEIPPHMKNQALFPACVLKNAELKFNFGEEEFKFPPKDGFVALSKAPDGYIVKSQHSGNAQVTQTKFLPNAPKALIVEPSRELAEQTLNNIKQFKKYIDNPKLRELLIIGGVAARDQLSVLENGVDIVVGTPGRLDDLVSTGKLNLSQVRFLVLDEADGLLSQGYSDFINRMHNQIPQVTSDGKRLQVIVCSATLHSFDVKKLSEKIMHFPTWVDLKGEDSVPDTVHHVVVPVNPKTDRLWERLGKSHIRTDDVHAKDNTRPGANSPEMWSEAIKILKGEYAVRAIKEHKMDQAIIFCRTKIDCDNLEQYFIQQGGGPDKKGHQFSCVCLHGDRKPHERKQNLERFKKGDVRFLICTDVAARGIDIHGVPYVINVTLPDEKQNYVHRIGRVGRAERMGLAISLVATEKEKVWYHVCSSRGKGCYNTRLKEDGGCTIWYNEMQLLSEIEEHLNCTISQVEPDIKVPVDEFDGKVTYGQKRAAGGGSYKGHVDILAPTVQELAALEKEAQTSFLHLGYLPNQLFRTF

[4] = target: T2, Interleukin-1 receptor-associated kinase 3 (Homo sapiens, UniProt Q9Y616)
T2 sequence (Q9Y616 whole entry): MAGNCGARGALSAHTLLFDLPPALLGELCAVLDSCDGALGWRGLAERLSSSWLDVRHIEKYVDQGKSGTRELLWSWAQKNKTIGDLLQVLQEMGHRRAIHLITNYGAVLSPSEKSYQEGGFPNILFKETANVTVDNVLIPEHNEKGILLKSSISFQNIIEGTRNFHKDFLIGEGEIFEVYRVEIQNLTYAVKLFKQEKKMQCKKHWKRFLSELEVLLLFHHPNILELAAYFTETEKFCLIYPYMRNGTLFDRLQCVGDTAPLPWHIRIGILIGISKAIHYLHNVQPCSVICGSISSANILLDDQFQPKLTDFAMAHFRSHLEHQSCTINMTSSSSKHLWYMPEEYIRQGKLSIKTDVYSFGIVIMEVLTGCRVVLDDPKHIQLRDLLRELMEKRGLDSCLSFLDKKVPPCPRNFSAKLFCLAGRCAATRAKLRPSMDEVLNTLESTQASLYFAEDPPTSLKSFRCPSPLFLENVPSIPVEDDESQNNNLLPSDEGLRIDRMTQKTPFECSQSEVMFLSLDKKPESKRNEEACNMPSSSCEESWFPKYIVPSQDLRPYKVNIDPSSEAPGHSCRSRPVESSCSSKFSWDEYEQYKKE

[5] = target: T3, Signal recognition particle receptor subunit alpha (Homo sapiens, UniProt P08240)
T3 sequence (P08240 whole entry): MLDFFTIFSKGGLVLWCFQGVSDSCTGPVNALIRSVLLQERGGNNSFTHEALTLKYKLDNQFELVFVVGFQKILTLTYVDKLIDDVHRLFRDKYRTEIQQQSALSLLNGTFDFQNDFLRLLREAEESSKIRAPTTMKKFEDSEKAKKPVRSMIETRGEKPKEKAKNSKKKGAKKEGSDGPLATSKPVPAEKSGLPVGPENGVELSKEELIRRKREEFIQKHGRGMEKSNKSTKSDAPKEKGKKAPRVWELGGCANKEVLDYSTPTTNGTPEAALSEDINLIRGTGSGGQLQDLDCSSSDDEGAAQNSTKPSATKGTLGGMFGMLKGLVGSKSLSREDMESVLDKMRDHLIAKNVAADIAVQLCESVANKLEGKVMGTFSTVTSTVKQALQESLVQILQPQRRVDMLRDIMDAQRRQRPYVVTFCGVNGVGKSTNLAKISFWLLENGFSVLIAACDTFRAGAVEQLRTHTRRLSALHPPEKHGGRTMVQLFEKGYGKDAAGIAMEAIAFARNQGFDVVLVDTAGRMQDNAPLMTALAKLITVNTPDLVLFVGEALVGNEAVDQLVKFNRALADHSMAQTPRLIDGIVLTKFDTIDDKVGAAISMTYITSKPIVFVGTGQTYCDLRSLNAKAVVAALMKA

Obg-like ATPase 1 = Obg-like ATPase 1 (Homo sapiens, UniProt Q9NTK5)
Sequence of Obg-like ATPase 1 (Q9NTK5 whole entry, looked up): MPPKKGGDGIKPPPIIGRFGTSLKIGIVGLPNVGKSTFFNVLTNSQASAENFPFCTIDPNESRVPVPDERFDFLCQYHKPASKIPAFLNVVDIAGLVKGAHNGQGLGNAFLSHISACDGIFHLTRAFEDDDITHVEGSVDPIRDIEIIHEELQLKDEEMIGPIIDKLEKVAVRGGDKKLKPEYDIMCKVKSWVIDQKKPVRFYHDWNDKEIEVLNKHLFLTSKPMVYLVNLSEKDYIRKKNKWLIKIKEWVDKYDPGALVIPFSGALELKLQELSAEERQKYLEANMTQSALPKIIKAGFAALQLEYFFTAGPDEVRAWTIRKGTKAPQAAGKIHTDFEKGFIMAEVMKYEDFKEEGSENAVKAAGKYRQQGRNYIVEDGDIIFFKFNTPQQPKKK

Activated CDC42 kinase 1 = Activated CDC42 kinase 1 (Homo sapiens, UniProt Q07912)
Sequence of Activated CDC42 kinase 1 (Q07912 whole entry): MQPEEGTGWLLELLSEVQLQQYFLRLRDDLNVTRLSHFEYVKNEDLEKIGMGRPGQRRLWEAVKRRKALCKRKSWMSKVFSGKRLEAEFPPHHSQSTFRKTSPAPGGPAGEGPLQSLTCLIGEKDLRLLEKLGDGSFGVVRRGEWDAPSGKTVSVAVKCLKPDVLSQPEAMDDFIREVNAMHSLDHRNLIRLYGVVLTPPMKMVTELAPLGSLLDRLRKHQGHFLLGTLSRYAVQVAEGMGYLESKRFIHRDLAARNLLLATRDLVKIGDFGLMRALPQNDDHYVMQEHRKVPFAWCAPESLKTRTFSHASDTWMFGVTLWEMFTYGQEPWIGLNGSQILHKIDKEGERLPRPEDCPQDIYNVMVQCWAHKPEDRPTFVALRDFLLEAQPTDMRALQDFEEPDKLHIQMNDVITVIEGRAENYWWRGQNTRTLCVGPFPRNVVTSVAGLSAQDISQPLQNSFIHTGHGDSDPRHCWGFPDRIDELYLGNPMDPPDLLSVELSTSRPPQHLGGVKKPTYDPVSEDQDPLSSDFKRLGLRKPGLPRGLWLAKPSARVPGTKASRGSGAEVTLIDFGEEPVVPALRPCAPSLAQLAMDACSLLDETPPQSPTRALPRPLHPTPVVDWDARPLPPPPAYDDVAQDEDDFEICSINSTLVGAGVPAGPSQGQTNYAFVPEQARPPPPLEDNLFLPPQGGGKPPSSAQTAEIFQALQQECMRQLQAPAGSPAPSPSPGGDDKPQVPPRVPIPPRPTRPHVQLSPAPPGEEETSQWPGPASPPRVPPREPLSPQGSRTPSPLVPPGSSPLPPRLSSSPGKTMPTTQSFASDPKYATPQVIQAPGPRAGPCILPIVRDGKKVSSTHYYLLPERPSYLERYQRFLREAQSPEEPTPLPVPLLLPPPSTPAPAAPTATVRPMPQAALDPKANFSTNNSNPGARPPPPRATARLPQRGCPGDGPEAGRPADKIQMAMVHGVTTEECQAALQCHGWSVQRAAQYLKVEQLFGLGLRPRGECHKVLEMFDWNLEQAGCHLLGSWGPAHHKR

Measured: Kd

Sequence of Proto-oncogene tyrosine-protein kinase Src (P12931 2-536 limits assumed): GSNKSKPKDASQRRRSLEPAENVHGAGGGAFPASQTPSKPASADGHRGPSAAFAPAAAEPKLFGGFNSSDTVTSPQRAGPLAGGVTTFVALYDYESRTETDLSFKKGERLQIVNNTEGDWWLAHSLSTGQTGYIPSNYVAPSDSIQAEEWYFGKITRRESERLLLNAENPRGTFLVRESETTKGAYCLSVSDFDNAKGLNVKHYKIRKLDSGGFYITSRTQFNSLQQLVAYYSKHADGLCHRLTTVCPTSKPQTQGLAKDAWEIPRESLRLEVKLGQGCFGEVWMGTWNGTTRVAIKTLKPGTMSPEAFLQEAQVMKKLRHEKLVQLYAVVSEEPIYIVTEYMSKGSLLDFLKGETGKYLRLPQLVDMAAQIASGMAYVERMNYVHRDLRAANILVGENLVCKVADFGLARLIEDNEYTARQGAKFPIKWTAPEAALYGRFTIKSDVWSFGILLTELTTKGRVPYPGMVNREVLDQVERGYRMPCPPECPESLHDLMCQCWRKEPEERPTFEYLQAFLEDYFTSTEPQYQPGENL

C=CCn1c(=O)c2cnc(Nc3ccc(N4CCN(C)CC4)cc3)nc2n1-c1cccc(C(C)(C)O)n1 [ADAVOSERTIB]
inactive: Actin-related protein 2 > 30 µM | [1] > 30 µM | Ephrin type-A receptor 2 > 30 µM | [2] > 30 µM | [3] > 30 µM | [4] > 30 µM | [5] > 30 µM | Obg-like ATPase 1 > 30 µM

C=CCN(/C=C1/C(=O)O[C@H](COC)[C@@]2(C)C1=C(O)C(=O)C1=C2[C@H](OC(C)=O)C[C@]2(C)C(=O)CC[C@@H]12)CC=C [SONOLISIB]
inactive: [1] > 30 µM | Ephrin type-A receptor 2 > 30 µM | [2] > 30 µM | Activated CDC42 kinase 1 > 30 µM | [4] > 30 µM

CN1CCN(c2nc(C3=C(c4c[nH]c5ccccc45)C(=O)NC3=O)c3ccccc3n2)CC1 [SOTRASTAURIN]
inactive: Actin-related protein 2 > 30 µM | [1] > 30 µM | Ephrin type-A receptor 2 > 30 µM | [2] > 30 µM | Activated CDC42 kinase 1 > 30 µM | [3] > 30 µM | [4] > 30 µM

COc1ccc(-c2ccc3ncc4c(c3c2)n(-c2ccc(N3CCNCC3)c(C(F)(F)F)c2)c(=O)n4C)cn1 [BGT-226 FREE BASE]
inactive: Actin-related protein 2 > 30 µM | [1] > 30 µM | Ephrin type-A receptor 2 > 30 µM | [2] > 30 µM | Activated CDC42 kinase 1 > 30 µM | [3] > 30 µM | [4] > 30 µM | Obg-like ATPase 1 > 30 µM

C#Cc1cccc(Nc2ncnc3cc4c(cc23)OCCOCCOCCO4)c1 [ICOTINIB]
inactive: Actin-related protein 2 > 30 µM | [1] > 30 µM | Ephrin type-A receptor 2 > 30 µM | [2] > 30 µM | Activated CDC42 kinase 1 > 30 µM | [3] > 30 µM | [4] > 30 µM | [5] > 30 µM | Obg-like ATPase 1 > 30 µM

COc1cc2ncnc3c2cc1OCCCCCN(C)Cc1ccc(Br)cc1N3 [JNJ-26483327]
inactive: [1] > 30 µM | Ephrin type-A receptor 2 > 30 µM | [2] > 30 µM | Activated CDC42 kinase 1 > 30 µM | [3] > 30 µM | [4] > 30 µM | [5] > 30 µM | Obg-like ATPase 1 > 30 µM

O=C(NC[C@H](O)CO)c1ccncc1Nc1ccc(I)cc1F [PIMASERTIB]
inactive: Actin-related protein 2 > 30 µM | [1] > 30 µM | Ephrin type-A receptor 2 > 30 µM | [2] > 30 µM | Activated CDC42 kinase 1 > 30 µM | [3] > 30 µM | [4] > 30 µM | [5] > 30 µM | Obg-like ATPase 1 > 30 µM

CC(C)(O)CC(=O)NCCn1ccc2ncnc(Nc3ccc(Oc4cccc(C(F)(F)F)c4)c(Cl)c3)c21 [TAK-285]
inactive: Actin-related protein 2 > 30 µM | [1] > 30 µM | Ephrin type-A receptor 2 > 30 µM | [2] > 30 µM | Activated CDC42 kinase 1 > 30 µM | [3] > 30 µM | [4] > 30 µM | [5] > 30 µM

CC(C)CC(=O)Nc1[nH]nc2c1CN(C(=O)C1CCN(C)CC1)C2(C)C [PHA-793887]
inactive: Actin-related protein 2 > 30 µM | [1] > 30 µM | Ephrin type-A receptor 2 > 30 µM | [2] > 30 µM | Activated CDC42 kinase 1 > 30 µM | [3] > 30 µM | [4] > 30 µM | Obg-like ATPase 1 > 30 µM

CNC(=O)c1cc(COc2nnc(Nc3ccc(Cl)cc3)c3ccoc23)ccn1 [TELATINIB]
inactive: Actin-related protein 2 > 30 µM | [1] > 30 µM | Ephrin type-A receptor 2 > 30 µM | [2] > 30 µM | Activated CDC42 kinase 1 > 30 µM | [3] > 30 µM | [4] > 30 µM | [5] > 30 µM | Obg-like ATPase 1 > 30 µM

C=CC(=O)Nc1cccc(Nc2nc(Nc3ccc(N4CCN(C(C)=O)CC4)cc3OC)ncc2C(F)(F)F)c1 [ROCILETINIB]
inactive: Actin-related protein 2 > 30 µM | [1] > 30 µM | Ephrin type-A receptor 2 > 30 µM | [2] > 30 µM | Activated CDC42 kinase 1 > 30 µM | [3] > 30 µM | [4] > 30 µM | [5] > 30 µM | Obg-like ATPase 1 > 30 µM

O=C(O)c1ccc2c(c1)nc(Nc1cccc(Cl)c1)c1ccncc12 [SILMITASERTIB]
inactive: Actin-related protein 2 > 30 µM | [1] > 30 µM | Ephrin type-A receptor 2 > 30 µM | [2] > 30 µM | Activated CDC42 kinase 1 > 30 µM | [4] > 30 µM | [5] > 30 µM

Cc1c(NC(=O)OC[C@@H]2COCCN2)cn2ncnc(Nc3ccc4c(cnn4Cc4cccc(F)c4)c3)c12 [AC-480]
inactive: Actin-related protein 2 > 30 µM | [1] > 30 µM | Ephrin type-A receptor 2 > 30 µM | [2] > 30 µM | Activated CDC42 kinase 1 > 30 µM | [3] > 30 µM | [4] > 30 µM | Obg-like ATPase 1 > 30 µM
